Source: US20240174744A1, “METHODS OF TREATMENT USING PROTEIN BINDERS TO IRHOM2 EPITOPES” (SCIRHOM GMBH, priority 2021, published 2024)

System: PMA-induced release of IL-6R from U-937 cells
Assay: ELISA-based IL-6R release assay, PMA-stimulated U-937 cells
Assay type: cell-based
Conditions: Homo sapiens, U-937, 1 h, Batimastat 10 μM, PMA 62.5 ng/ml
Experimental: Complementary to Example 26 described above, ELISA-based IL-6R release assays were performed to verify the inhibitory effects of the antibodies of the present disclosure on PMA-induced release of endogenous IL-6R from human U-937 cells.
In brief, on day 1, Nunc black MaxiSorp® 96-well plates (Thermo Fisher Scientific, USA) were coated overnight with 100 μl per well of mouse anti-human IL-6R capture antibody (provided as part of the DuoSet ELISA kit) at 2 μg/ml TBS at 4° C. On day 2, the capture antibody solution was removed and MaxiSorp® plates were blocked with 300 μl per well of TBS, 1% BSA at room temperature for 1-2 hours. […] Using an infinite M1000 (Tecan Group, Switzerland) microplate reader, the fluorescence of each well was collected at an excitation wavelength of 435 nm and an emission wavelength of 555 nm. […]

With CNC(=O)[C@H](Cc1ccccc1)NC(=O)[C@H](CC(C)C)[C@H](CSc1cccs1)C(=O)NO [Batimastat] the inhibition at 10 µM (murine (m) and chimeric (ch) antibodies 3 μg/ml) was 91.6% and the inhibition at 10 µM (recombinant murine antibodies 1 μg/ml) was 86.6%.
